Nine compounds from patent publication US10206394B2, “Herbicidal compounds” (Syngenta Participations AG, priority 2014, dated 2019) can be followed below.

Holding throughout (experiment): Glasshouse assay for herbicidal activity (pre- and post-emergence), percentage phytotoxicity
What all share (assay type): in vivo

The subject of test [1] is Alopecurus myosuroides (ALOMY). To be noted: Alopecurus myosuroides. Put shortly: (§1)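 Visually rated damage, 0–100%. PRE spray 1 d after sowing, scored 20 DAA; POST spray ~12 d, scored 15 DAA. Glasshouse at 65% humidity, 16 h day.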
The subject of test [2] is Echinochloa crus-galli (ECHCG). Particulars: Echinochloa crus-galli. Put shortly: as §1
Another test has as its system Avena fatua (AVEFA). To be noted: Avena fatua. Put shortly: as §1
A further test has as its system Lolium perenne (LOLPE). To be noted: Lolium perenne. Put shortly:
as §1

Setting [3] is: post-emergence, 360 h, POST-emergence, rate 250 g/ha, visual score 15 DAA (100%=total damage, 0%=no damage), read-out: Post-emergence herbicidal activity (percentage phytotoxicity) ALOMY POST.
Where [4] appears, read: pre-emergence, 480 h, PRE-emergence, rate 250 g/ha, visual score 20 DAA (100%=total damage, 0%=no damage), read-out: Pre-emergence herbicidal activity (percentage phytotoxicity) ALOMY PRE.
[5] abbreviates: post-emergence, 360 h, POST-emergence, rate 250 g/ha, visual score 15 DAA (100%=total damage, 0%=no damage), read-out: Post-emergence herbicidal activity (percentage phytotoxicity) ECHCG POST.
Setting [6] is: pre-emergence, 480 h, PRE-emergence, rate 250 g/ha, visual score 20 DAA (100%=total damage, 0%=no damage), read-out: Pre-emergence herbicidal activity (percentage phytotoxicity) ECHCG PRE.
Where [7] appears, read: post-emergence, 360 h, POST-emergence, rate 250 g/ha, visual score 15 DAA (100%=total damage, 0%=no damage), read-out: Post-emergence herbicidal activity (percentage phytotoxicity) AVEFA POST.
Setting [8] is: pre-emergence, 480 h, PRE-emergence, rate 250 g/ha, visual score 20 DAA (100%=total damage, 0%=no damage), read-out: Pre-emergence herbicidal activity (percentage phytotoxicity) AVEFA PRE.
Where [9] appears, read: post-emergence, 360 h, POST-emergence, rate 250 g/ha, visual score 15 DAA (100%=total damage, 0%=no damage), read-out: Post-emergence herbicidal activity (percentage phytotoxicity) LOLPE POST.
Where [10] appears, read: pre-emergence, 480 h, PRE-emergence, rate 250 g/ha, visual score 20 DAA (100%=total damage, 0%=no damage), read-out: Pre-emergence herbicidal activity (percentage phytotoxicity) LOLPE PRE.
[11] abbreviates: post-emergence, 360 h, Rate 250 g/ha, post-emergence, assessed visually 15 DAA, 100%=total damage, 0%=no damage, read-out: Post-emergence herbicidal activity (percentage phytotoxicity) ALOMY POST.
Setting [12] is: pre-emergence, 480 h, Rate 250 g/ha, pre-emergence, assessed visually 20 DAA, 100%=total damage, 0%=no damage, read-out: Pre-emergence herbicidal activity (percentage phytotoxicity) ALOMY PRE.
The mark [13] stands for this setting: post-emergence, 360 h, Rate 250 g/ha, post-emergence, assessed visually 15 DAA, 100%=total damage, 0%=no damage, read-out: Post-emergence herbicidal activity (percentage phytotoxicity) ECHCG POST.
The mark [14] stands for this setting: pre-emergence, 480 h, Rate 250 g/ha, pre-emergence, assessed visually 20 DAA, 100%=total damage, 0%=no damage, read-out: Pre-emergence herbicidal activity (percentage phytotoxicity) ECHCG PRE.
Setting [15] is: post-emergence, 360 h, Rate 250 g/ha, post-emergence, assessed visually 15 DAA, 100%=total damage, 0%=no damage, read-out: Post-emergence herbicidal activity (percentage phytotoxicity) AVEFA POST.
Setting [16] is: pre-emergence, 480 h, Rate 250 g/ha, pre-emergence, assessed visually 20 DAA, 100%=total damage, 0%=no damage, read-out: Pre-emergence herbicidal activity (percentage phytotoxicity) AVEFA PRE.
The mark [17] stands for this setting: post-emergence, 360 h, Rate 250 g/ha, post-emergence, assessed visually 15 DAA, 100%=total damage, 0%=no damage, read-out: Post-emergence herbicidal activity (percentage phytotoxicity) LOLPE POST.
Where [18] appears, read: pre-emergence, 480 h, Rate 250 g/ha, pre-emergence, assessed visually 20 DAA, 100%=total damage, 0%=no damage, read-out: Pre-emergence herbicidal activity (percentage phytotoxicity) LOLPE PRE.

Like-named read-outs stand apart in the source and are kept apart here.

Turning to `Cc1cc(-c2ccc(Br)cn2)cc(C)c1C1C(=O)CC(CC(=O)NC(C)(C)C)C1=O` (stereo not drawn) [Compound B322], the pest or weed control at 250 g/ha worked out at 100% in test [1] (setting [3]); 90% in test [1] (setting [4]); 100% in test [2] (setting [5]); 90% in test [2] (setting [6]); 100% in the test with Avena fatua (AVEFA) (setting [7]); 70% with Avena fatua (AVEFA) (setting [8]). Further, the pest or weed control at 250 g/ha was determined as 100% with Lolium perenne (LOLPE) (setting [9]) and 90% in the test with Lolium perenne (LOLPE) (setting [10]).
Take `Cc1cc(-c2ncc(Cl)cn2)cc(C)c1C1=C(OC(=O)N2CCCC2)C(CC(=O)NC(C)(C)C)CC1=O` (stereo not drawn) [Compound P7]: the pest or weed control at 250 g/ha in test [1] (post-emergence, 360 h, Rate 250 g/ha, post-emergence, visual assessment 15 DAA, 100%=total damage, 0%=no damage, read-out: Post-emergence herbicidal activity (percentage phytotoxicity) ALOMY POST) is 70%; in test [1] (pre-emergence, 480 h, Rate 250 g/ha, pre-emergence, visual assessment 20 DAA, 100%=total damage, 0%=no damage, read-out: Pre-emergence herbicidal activity (percentage phytotoxicity) ALOMY PRE) it was 0%; in test [2] (post-emergence, 360 h, Rate 250 g/ha, post-emergence, visual assessment 15 DAA, 100%=total damage, 0%=no damage, read-out: Post-emergence herbicidal activity (percentage phytotoxicity) ECHCG POST), 80%; in test [2] (pre-emergence, 480 h, Rate 250 g/ha, pre-emergence, visual assessment 20 DAA, 100%=total damage, 0%=no damage, read-out: Pre-emergence herbicidal activity (percentage phytotoxicity) ECHCG PRE) it was 50%; in the test on Avena fatua (AVEFA) (post-emergence, 360 h, Rate 250 g/ha, post-emergence, visual assessment 15 DAA, 100%=total damage, 0%=no damage, read-out: Post-emergence herbicidal activity (percentage phytotoxicity) AVEFA POST), 60%; in the test with Avena fatua (AVEFA) (pre-emergence, 480 h, Rate 250 g/ha, pre-emergence, visual assessment 20 DAA, 100%=total damage, 0%=no damage, read-out: Pre-emergence herbicidal activity (percentage phytotoxicity) AVEFA PRE) it was 10%. Moreover, the pest or weed control at 250 g/ha was determined as 40% with Lolium perenne (LOLPE) (post-emergence, 360 h, Rate 250 g/ha, post-emergence, visual assessment 15 DAA, 100%=total damage, 0%=no damage, read-out: Post-emergence herbicidal activity (percentage phytotoxicity) LOLPE POST) and 30% with Lolium perenne (LOLPE) (pre-emergence, 480 h, Rate 250 g/ha, pre-emergence, visual assessment 20 DAA, 100%=total damage, 0%=no damage, read-out: Pre-emergence herbicidal activity (percentage phytotoxicity) LOLPE PRE).
Consider `CC#Cc1cc(C)c(C2C(=O)CC(CC(=O)NC(C)(C)C)C2=O)c(CC)c1` (stereo not drawn) [Compound A48], for which the pest or weed control at 250 g/ha in test [1] (setting [11]) was found to be 100%; in test [1] (setting [12]), 100%; in test [2] (setting [13]), 100%; in test [2] (setting [14]), 100%; in the test with Avena fatua (AVEFA) (setting [15]), 100%; in the test with Avena fatua (AVEFA) (setting [16]) it was 90%. The pest or weed control at 250 g/ha in the test with Lolium perenne (LOLPE) (setting [17]) and in the test on Lolium perenne (LOLPE) (setting [18]) was 100% throughout.
As for `Cc1cc(C)c(C2C(=O)CC(CC(=O)NCc3ccccc3C#N)C2=O)c(C)c1` (stereo not drawn) [Compound A108], the pest or weed control at 250 g/ha in test [1] (setting [11]) is 0%; in test [1] (setting [12]) it was 0%; in test [2] (setting [13]) it was 20%; in test [2] (setting [14]), 30%; in the test on Avena fatua (AVEFA) (setting [15]) it was 60%; in the test with Avena fatua (AVEFA) (setting [16]) it was 0%. The pest or weed control at 250 g/ha in the test with Lolium perenne (LOLPE) (setting [17]) was 60%; in the test on Lolium perenne (LOLPE) (setting [18]) it was 80%.
As to `Cc1cc(-c2ncc(Cl)cn2)cc(C)c1C1C(=O)C[C@H](CC(=O)NC(C)(C)C)C1=O` (stereo partly drawn) [Compound B50], the pest or weed control at 250 g/ha was 100% in test [1] (post-emergence, 360 h, 250 g/ha, post-emergence, 15 DAA, visual assessment (100%=total damage, 0%=no damage), read-out: Post-emergence herbicidal activity (percentage phytotoxicity) ALOMY POST); 90% in test [1] (pre-emergence, 480 h, 250 g/ha, pre-emergence, 20 DAA, visual assessment (100%=total damage, 0%=no damage), read-out: Pre-emergence herbicidal activity (percentage phytotoxicity) ALOMY PRE); 100% in test [2] (post-emergence, 360 h, 250 g/ha, post-emergence, 15 DAA, visual assessment (100%=total damage, 0%=no damage), read-out: Post-emergence herbicidal activity (percentage phytotoxicity) ECHCG POST); 100% in test [2] (pre-emergence, 480 h, 250 g/ha, pre-emergence, 20 DAA, visual assessment (100%=total damage, 0%=no damage), read-out: Pre-emergence herbicidal activity (percentage phytotoxicity) ECHCG PRE); 90% with Avena fatua (AVEFA) (post-emergence, 360 h, 250 g/ha, post-emergence, 15 DAA, visual assessment (100%=total damage, 0%=no damage), read-out: Post-emergence herbicidal activity (percentage phytotoxicity) AVEFA POST); 70% in the test with Avena fatua (AVEFA) (pre-emergence, 480 h, 250 g/ha, pre-emergence, 20 DAA, visual assessment (100%=total damage, 0%=no damage), read-out: Pre-emergence herbicidal activity (percentage phytotoxicity) AVEFA PRE). For the same compound, the pest or weed control at 250 g/ha in the test on Lolium perenne (LOLPE) (post-emergence, 360 h, 250 g/ha, post-emergence, 15 DAA, visual assessment (100%=total damage, 0%=no damage), read-out: Post-emergence herbicidal activity (percentage phytotoxicity) LOLPE POST) is 100%; with Lolium perenne (LOLPE) (pre-emergence, 480 h, 250 g/ha, pre-emergence, 20 DAA, visual assessment (100%=total damage, 0%=no damage), read-out: Pre-emergence herbicidal activity (percentage phytotoxicity) LOLPE PRE), 100%.
For the compound `Cc1cc(-c2ncc(Cl)cc2F)cc(C)c1C1C(=O)CC(CC(=O)NCc2ncc(C(F)(F)F)cc2Cl)C1=O` (stereo not drawn) [Compound A113], the pest or weed control at 250 g/ha was determined as 100% in test [1] (setting [11]); 80% in test [1] (setting [12]); 100% in test [2] (setting [13]); 100% in test [2] (setting [14]); 100% in the test with Avena fatua (AVEFA) (setting [15]); 90% in the test on Avena fatua (AVEFA) (setting [16]). The pest or weed control at 250 g/ha with Lolium perenne (LOLPE) (setting [17]) worked out at 100%; in the test with Lolium perenne (LOLPE) (setting [18]) it was 90%.
As to `COc1ccccc1CNC(=O)CC1CC(=O)C(c2c(C)cc(-c3ncc(Cl)cc3F)cc2C)C1=O` (stereo not drawn) [Compound A126], the pest or weed control at 250 g/ha in test [1] (setting [11]) was determined as 30%; in test [1] (setting [12]) it was 30%; in test [2] (setting [13]), 100%; in test [2] (setting [14]), 100%; in the test on Avena fatua (AVEFA) (setting [15]) it was 90%; in the test on Avena fatua (AVEFA) (setting [16]), 50%. The pest or weed control at 250 g/ha in the test with Lolium perenne (LOLPE) (setting [17]) and with Lolium perenne (LOLPE) (setting [18]) was 80% in each case.
Consider `CCNC(=O)CC1CC(=O)C(c2c(C)cc(-c3ccc(C#N)cn3)cc2C)C1=O` (stereo not drawn) [Compound B318], for which the pest or weed control at 250 g/ha in test [1] (setting [3]) worked out at 90%; in test [1] (setting [4]), 90%; in test [2] (setting [5]) it was 100%; in test [2] (setting [6]), 90%; with Avena fatua (AVEFA) (setting [7]) it was 100%; in the test with Avena fatua (AVEFA) (setting [8]) it was 90%. For the same compound, the pest or weed control at 250 g/ha came to 90% with Lolium perenne (LOLPE) (setting [9]) and 100% in the test on Lolium perenne (LOLPE) (setting [10]).
Consider `Cc1cc(-c2ncc(F)cc2F)cc(C)c1C1C(=O)CC(CC(=O)NCc2ccccc2)C1=O` (stereo not drawn) [Compound B181], for which the pest or weed control at 250 g/ha in test [1] (setting [3]) was determined as 100%; in test [1] (setting [4]), 70%; in test [2] (setting [5]), 100%; in test [2] (setting [6]), 100%; in the test on Avena fatua (AVEFA) (setting [7]) it was 100%; with Avena fatua (AVEFA) (setting [8]), 70%. In addition, the pest or weed control at 250 g/ha in the test on Lolium perenne (LOLPE) (setting [9]) and in the test with Lolium perenne (LOLPE) (setting [10]) was 100% throughout.
